Entries after “also recorded” stand apart in the source; their conditions may differ. Where two headings read alike, the source gives them in different places.
Legend:
rice d10 mutant = test: Rice micro tillering bioassay, d10 mutant; assay type: in vivo; settings: for EC50: Oryza sativa, read-out: EC50 for tillering inhibition of the rice d10 mutant
Description: Rice seeds (WT, d3, d10) were surface-sterilized by washing with 70% ethanol for 1 min and then with 2.5% sodium hypochlorite for 15 min. Seeds were then rinsed thoroughly with sterile MilliQ water and incubated in water for 2 d at 30 °C in the dark. Pre-germinated seeds were transferred to filter papers containing half-strength MS medium in 90 mm Petri dishes and incubated at 30 °C under fluorescent white light (130–180 μmol m^−2 s^−1) for 1 week. Seven-day-old seedlings were transferred to 50 ml falcon tubes (one seedling per tube) containing modified half-strength Hoagland nutrient solution and grown in greenhouse. Plants were treated with MPs at 2.5 μM to 2.5 × 10^–7 μM, using GR24 as positive control. The compounds were applied six times, twice a week. Number of tillers per plant, plant height and fresh biomass were measured at final harvest.
Statistical analyses were carried out using the statistical software package R (version 3.2.2). Dose–response curves and half-maximum effective concentrations (EC50) were calculated to determine optimum amount of MPs. The synthetic strigolactone analog GR24 was used as reference to estimate efficacy of selected compounds. EC50 and estimated response were calculated using the drc package (https://cran.r-project.org/web/packages/drc/) with a four parameter logistic curve (dose–response curve) ([Ritz and Streibig, 2005]).

OsD14 = target: T1, OsD14 (Oryza sativa subsp. japonica, UniProt Q10QA5); test: Intrinsic tryptophan fluorescence assay, OsD14; assay type: binding, rice
T1 construct: made in house; host or cells: E. coli BL21 (DE3)
T1 sequence (Q10QA5 1-318): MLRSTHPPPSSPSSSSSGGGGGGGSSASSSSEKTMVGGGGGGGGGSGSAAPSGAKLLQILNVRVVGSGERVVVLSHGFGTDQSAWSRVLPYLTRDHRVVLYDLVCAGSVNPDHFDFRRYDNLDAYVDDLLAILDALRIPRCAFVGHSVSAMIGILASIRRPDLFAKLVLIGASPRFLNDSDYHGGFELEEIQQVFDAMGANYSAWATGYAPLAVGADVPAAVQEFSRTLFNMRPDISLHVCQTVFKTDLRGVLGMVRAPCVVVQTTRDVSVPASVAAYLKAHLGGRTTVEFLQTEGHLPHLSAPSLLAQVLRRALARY
Description: Striga hermonthica ShHTL7 cDNA was used, GenBank accession KR013127, kindly provided by Tsuyoshi Ota, The University of Tokyo, Japan. Arabidopsis D14 (AtD14) cDNA, GenBank accession AY097402, was synthesized and cloned into pUC57 (GenScript). ShHTL7 and OsD14 cDNAs were amplified by RT-PCR using the primers shown in Supplementary Table S2, digested with BamHI and XhoI, and ligated into BamHI/XhoI-digested pGEX-6P-1 expression vector (GE Healthcare). Integrity of plasmids was confirmed by sequencing (KAUST Bioscience Core Lab). The plasmids were then transformed into E. coli BL21 (DE3) cells. The cells were grown in LB broth containing ampicillin ([…]), incubated at 37 °C until OD600 of 0.6 and induced with 0.1 mM isopropyl-β-D-thiogalactopyranoside at 16 °C for 16 h. Harvested cells were resuspended in lysis buffer: 50 mM Tris–HCl (pH 8.0), 200 mM NaCl, 0.5% Tween-20 and 2 mM dithiothreitol (DTT). After sonication on ice for 10 min, the lysate was centrifuged at 75 000 g for 30 min at 4 °C. Supernatant was allowed to bind to glutathione–sepharose beads (GE Healthcare) for 2 h at 4 °C, washed 3 times with buffer (50 mM Tris-HCl (pH 8.0), 200 mM NaCl, 2 mM DTT), and eluted by cleaving the GST moiety with PreScission™ Protease (GE Healthcare) at 4 °C overnight. Eluted protein was further purified by gel filtration using a HiLoad 16/60 Superdex200 prep grade column (GE Healthcare) on an AKTA prime system (GE Healthcare) in gel filtration buffer (10 mM HEPES pH 7.5, 50 mM KCl and 2 mM DTT). Protein eluted as a sharp single peak and purity was judged by 4–15% SDS-PAGE (Bio-Rad). Purified protein was concentrated using an Amicon 10K filter unit (Merck Millipore) and stored at −80 °C until use. A similar expression and purification protocol was followed for OsD14 protein, except that OsD14 was eluted from glutathione resins using 0.2 mM reduced glutathione (Sigma-Aldrich) without cutting the GST tag.
ShHTL7/D14 tryptophans were excited at 280 nm and emission intensity was measured at 333 nm. ShHTL7/D14 (10 μM) was incubated at various dilutions (0.2, 0.4, 0.8, 1.6, 3.12, 6.25, 12.5, 25, and 50 μM) of GR24 and MPs for 30 min at room temperature before measurement. Each concentration point was measured in triplicate. Emitted fluorescence was monitored using a spectraMaxi3 plate reader (Molecular Devices) in 96-well black plates. Changes in tryptophan fluorescence intensity occur due to conformational changes in protein when it is bound to ligand; differences in fluorescence intensity were recorded and analysed. Data were normalized and dissociation coefficient (Kd) values were calculated by fitting to a binding saturation single-site model with Prism 6 (GraphPad).

[1] = Chemical stability in aqueous solution (UHPLC); assay type: physicochemical; settings: aqueous solution pH 6.8, 21 °C, 50 μg ml^−1, monitored at 24 h intervals up to 3 weeks
Description: Aqueous solutions of MPs (50 μg ml^−1; pH 6.8) were incubated at 21 °C in amber HPLC vials (adapted from [de Saint Germain et al., 2016]). For sample preparation, 50 μl of an acetone solution (1 mg ml^−1) was diluted to the final concentration with methanol (425 μl), water (500 μl) and 25 μl of 1-indanol (1.0 mg ml^−1 solution in acetone) as internal standard. […] Compounds eluted from the column were detected with a diode array detector. The relative quantity of remaining (non-degraded) product was determined by comparison with the internal standard. Stability was monitored at 24 h intervals up to 3 weeks.

[2] = 10 μM protein, 30 min, room temperature, read-out: Kd, OsD14

| Compound | number of tillers per plant, d10 mutant (rice d10 mutant; 2.5 μM, hydroponic culture, Mock four tillers per plant) | EC50 (rice d10 mutant) [nM] | Kd (OsD14) [µM] | stability in comparison with GR24 [1] | Kd (OsD14; [2]) [µM] | growth, senescence symptoms and biomass of rice seedlings (rice d10 mutant; 2.5 μM) |
| --- | --- | --- | --- | --- | --- | --- |
| CC1=CC(OC=C2C(=O)OC3c4ccccc4CC23)OC1=O (stereo not shown) [GR24, reference compound] | one | 48.3 | 4.17 ± 0.32 |  |  |  |
| COC(=O)/C(=C/OC1C=C(C)C(=O)O1)c1ccc([N+](=O)[O-])cc1 (stereo not shown) [MP1, (E)-methyl 3-(4-methyl-5-oxo-2,5-dihydrofuran-2-yloxy)-2-(4-nitrophenyl)acrylate] |  | 242 |  | slightly less stable than GR24 | 3.52 ± 0.35 |  |
| COC(=O)/C(=C/OC1C=C(C)C(=O)O1)c1ccccc1 (stereo not shown) [MP3, (E)-methyl 3-(4-methyl-5-oxo-2,5-dihydrofuran-2-yloxy)-2-phenylacrylate] |  | 2.98 |  | more stable than GR24 | 7.46 ± 0.53 | stunted the growth and caused senescence symptoms; also recorded: growth retardation and senescence |
| COC(=O)/C(=C/OC1C=C(C)C(=O)O1)c1ccc(Cl)cc1 (stereo not shown) [MP7] |  | 25.4 |  | more stable than GR24 | 8.74 ± 0.83 |  |
